Assay results reported in US20220220152A1, “BIVALENT ANTAGONISTS OF INHIBITORS OF APOPTOSIS PROTEINS” (Hepagene Therapeutics (HK) Limited, priority 2019, published 2022).
pIC50: −log10 of the molar value.

Experiments:
[1] = molecular target: T1, cIAP2-BIR3 (Homo sapiens, UniProt Q13489); test: cIAP2-BIR3 fluorescence polarization binding assay; conditions: FP, probe AbuRPFK-5FAM (SM5F) 5 nM, cIAP2-BIR3 80 nM, 60 min at 25° C.
T1 construct: cIAP2-BIR3; purchased Reaction Biology APT-11-372
In short: (§1)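 Fluorescence polarization competition using 5-carboxyfluorescein-labelled peptide probe AbuRPFK-5FAM; protein and compound preincubated 15 min, probe added, then 60 min at 25° C.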

[2] = molecular target: T2, cIAP1-BIR3 (Homo sapiens, UniProt Q13490); test: cIAP1-BIR3 fluorescence polarization binding assay; conditions: FP, probe AbuRPFK-5FAM (SM5F) 5 nM, cIAP1-BIR3 15 nM, 60 min at 25° C.
T2 construct: cIAP1-BIR3; purchased Reaction Biology APT-11-370
In short: as §1

[3] = molecular target: T3, XIAP-BIR3 (Homo sapiens, UniProt P98170); test: XIAP-BIR3 fluorescence polarization binding assay; conditions: FP, probe AbuRPFK-5FAM (SM5F) 5 nM, XIAP-BIR3 40 nM, 60 min at 25° C.
T3 construct: XIAP-BIR3; purchased Reaction Biology APT-11-374
In short: as §1

T1 sequence (Q13489 238-349 limits assumed): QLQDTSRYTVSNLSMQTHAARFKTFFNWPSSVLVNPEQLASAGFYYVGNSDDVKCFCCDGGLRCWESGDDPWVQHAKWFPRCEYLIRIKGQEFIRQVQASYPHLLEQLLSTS
T2 sequence (Q13490 253-363 limits assumed): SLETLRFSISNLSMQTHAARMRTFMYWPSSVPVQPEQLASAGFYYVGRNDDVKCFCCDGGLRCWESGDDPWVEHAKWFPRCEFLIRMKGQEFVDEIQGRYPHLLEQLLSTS
T3 sequence (P98170 241-356 limits assumed): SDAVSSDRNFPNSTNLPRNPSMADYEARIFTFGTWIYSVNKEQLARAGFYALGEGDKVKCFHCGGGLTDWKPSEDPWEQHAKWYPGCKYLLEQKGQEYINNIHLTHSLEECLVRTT

| SMILES | pIC50 [1] | pIC50 [2] | pIC50 [3] |
| --- | --- | --- | --- |
| CN[C@@H](C)C(=O)N[C@H](C(=O)N1CCC[C@H]1C(=O)N[C@@H]1CCCc2c(NC(=O)c3cccc4c3CCC[C@H]4NC(=O)[C@@H]3CCCN3C(=O)[C@@H](NC(=O)[C@H](C)NC)C3CCOCC3)cccc21)C1CCOCC1 [Compound VII-B, (2S)-1[(2S)-2-[(2S)-2-(methylamino)propanamido]-2-(oxan-4-yl)acetyl]-N-[(1R)-5-[[(5R)-5-[(2S)-1[(2S)-2-[(2S)-2-(methylamino)propanamido]-2-(oxan-4-yl)acetyl]pyrrolidine-2-amido]-5,6,7,8-tetrahydronaphthalen-1-yl]carbamoyl]-1,2,3,4-tetrahydronaphthalen-1-yl]pyrrolidine-2-carboxamide] | 7.00 to 8.00 | 8.00 to 9.00 | 7.00 to 8.00 |
| CN[C@@H](C)C(=O)N[C@H](C(=O)N1CCC[C@H]1C(=O)N[C@@H]1CCCc2c(OCCCCCOc3cccc4c3CCC[C@H]4NC(=O)[C@@H]3CCCN3C(=O)[C@@H](NC(=O)[C@H](C)NC)C(C)C)cccc21)C(C)C [Compound I-G, (2S)-1-[(2S)-3-methyl-2-[(2S)-2-(methylamino)propanamido]butanoyl]-N-[(1R)-5-[(5-[[(5R)-5-[(2S)-1-[(2S)-3-methyl-2-[(2S)-2-(methylamino)propanamido]butanoyl]pyrrolidine-2-amido]-5,6,7,8-tetrahydronaphthalen-1-yl]oxy]pentyl)oxy]-1,2,3,4-tetrahydronaphthalen-1-yl]pyrrolidine-2-carboxamide] | 7.00 to 8.00 | 8.00 to 9.00 | 7.00 to 8.00 |
| CN[C@@H](C)C(=O)N[C@H](C(=O)N1CCC[C@H]1C(=O)N[C@@H]1CCc2c(-c3cccc4c3CC[C@H]4NC(=O)[C@@H]3CCCN3C(=O)[C@@H](NC(=O)[C@H](C)NC)C3CCOCC3)cccc21)C1CCOCC1 [Compound V-R, (S)-1-((S)-2-((S)-2-(methylamino)propanamido)-2-(tetrahydro-2H-pyran-4-yl)acetyl)-N-((1R,1′R)-1′-((S)-1-((S)-2-((S)-2-(methylamino)propanamido)-2-(tetrahydro-2H-pyran-4-yl)acetyl)pyrrolidine-2-carboxamido)-2,2′,3,3′-tetrahydro-1H,1′H-[4,4′-biinden]-1-yl)pyrrolidine-2-carboxamide] | 7.00 to 8.00 | 8.00 to 9.00 | 7.00 to 8.00 |
| CN[C@@H](C)C(=O)NC(C(=O)N1CCC[C@H]1C(=O)N[C@@H]1CCCc2cc(N3CCN(c4ccc5c(c4)CCC[C@H]5NC(=O)[C@@H]4CCCN4C(=O)[C@@H](NC(=O)[C@H](C)NC)C4CCCCC4)CC3)ccc21)C1CCCCC1 (stereo partly drawn) [VIII-B, (2S)-1-[(2S)-2-cyclohexyl-2-[(2S)-2-(methylamino)propanamido]acetyl]-N-[1(1R)-6-[4-[(5R)-5-[(2S)-1-[(2S)-2-cyclohexyl-2-[(2S)-2-(methylamino)propanamido]acetyl]pyrrolidine-2-amido]-5,6,7,8-tetrahydronaphthalen-2-yl]piperazin-1-yl]-1,2,3,4-tetrahydronaphthalen-1-yl]pyrrolidine-2-carboxamide] | 6.00 to 7.00 | 7.00 to 8.00 | < 6.00 |
| CN[C@@H](C)C(=O)N[C@H](C(=O)N1CCC[C@H]1C(=O)N[C@@H]1CCCc2c(-c3ccc(-c4cccc5c4CCC[C@H]5NC(=O)[C@@H]4CCCN4C(=O)[C@@H](NC(=O)[C@H](C)NC)C(C)(C)C)cc3)cccc21)C(C)(C)C [Compound III-J, (2S)-1-[(2S)-3,3-dimethyl-2-[(2S)-2-(methylamino)propanamido]butanoyl]-N-[(1R)-5-[4-[(5R)-5-[(2S)-[-(2S)-3,3-dimethyl-2-[(2S)-2-(methylamino)propanamido]butanoyl]pyrrolidine-2-amido]-5,6,7,8-tetrahydronaphthalen-1-yl]phenyl]-1,2,3,4-tetrahydronaphthalen-1-yl]pyrrolidine-2-carboxamide] | 8.00 to 9.00 | 8.00 to 9.00 | 7.00 to 8.00 |
| CN[C@@H](C)C(=O)N[C@H](C(=O)N1CCC[C@H]1C(=O)N[C@@H]1CCCc2c(Nc3cccc4c3CCC[C@H]4NC(=O)[C@@H]3CCCN3C(=O)[C@@H](NC(=O)[C@H](C)NC)C3CCOCC3)cccc21)C1CCOCC1 [Compound VI-A, (S)-1-((S)-2-((S)-2-(methylamino)propanamido)-2-(tetrahydro-2H-pyran-4-yl)acetyl)-N—((R)-5-(((R)-5-((S)-1-((S)-2-((S)-2-(methylamino)propanamido)-2-(tetrahydro-2H-pyran-4-yl)acetyl)pyrrolidine-2-carboxamido)-5,6,7,8-tetrahydronaphthalen-1-yl)amino)-1,2,3,4-tetrahydronaphthalen-1-yl)pyrrolidine-2-carboxamide] | 7.00 to 8.00 | 8.00 to 9.00 | 7.00 to 8.00 |

The remaining lines, values ahead:

| pIC50 [1] | pIC50 [2] | pIC50 [3] | SMILES |
| --- | --- | --- | --- |
| 7.00 to 8.00 | 8.00 to 9.00 | 7.00 to 8.00 | CN[C@@H](C)C(=O)N[C@H](C(=O)N1CCC[C@H]1C(=O)N[C@@H]1CCCc2c(OCCOCCOc3cccc4c3CCC[C@H]4NC(=O)[C@@H]3CCCN3C(=O)[C@@H](NC(=O)[C@H](C)NC)C3CCOCC3)cccc21)C1CCOCC1 [Compound II-B, (2S)-1-[(2S)-2-[(2S)-2-(Methylamino)propanamido]-2-(oxan-4-yl)acetyl]-N-[(1R)-5-[2-(2-{[(5R)-5-[(2S)-1-[(2S)-2-[(2S)-2-(methylamino)propanamido]-2-(oxan-4-yl)acetyl]pyrrolidine-2-amido]-5,6,7,8-tetrahydronaphthalen-1-yl]oxy}ethoxy)ethoxy]-1,2,3,4-tetrahydronaphthalen-1-yl]pyrrolidine-2-carboxamide] |
| 6.00 to 7.00 | 8.00 to 9.00 | 6.00 to 7.00 | CN[C@@H](C)C(=O)N[C@H](C(=O)N1CCC[C@H]1C(=O)N[C@@H]1CCCc2c(OCc3ccc(COc4cccc5c4CCC[C@H]5NC(=O)[C@@H]4CCCN4C(=O)[C@@H](NC(=O)[C@H](C)NC)C4CCCCC4)cc3)cccc21)C1CCCCC1 [Compound I-F, (2S)-1-[(2S)-2-cyclohexyl-2-[(2S)-2-(methylamino)propanamido]acetyl]-N-[(1R)-5-[[4-([[(5R)-5-[(2S)-1-[(2S)-2-cyclohexyl-2-[(2S)-2-(methylamino)propanamido]acetyl]pyrolidine-2-amido]-5,6,7,8-tetrahydronaphthalen-1-yl]oxy]methyl)phenyl]methoxy]-1,2,3,4-tetrahydronaphthalen-1-yl]pyrrolidine-2-carboxamide] |
| 8.00 to 9.00 | 8.00 to 9.00 | 7.00 to 8.00 | CN[C@@H](C)C(=O)N[C@H](C(=O)N1CCC[C@H]1C(=O)N[C@@H]1CCCc2c(OCCOCCOc3cccc4c3CCC[C@H]4NC(=O)[C@@H]3CCCN3C(=O)[C@@H](NC(=O)[C@H](C)NC)C3CCCCC3)cccc21)C1CCCCC1 [Compound II, (2S)-1-[(2S)-2-Cyclohexyl-2-[(2S)-2-(methylamino)propanamido]acetyl]-N-[(1R)-5-[2-(2-[[(5R)-5-[(2S)-1-[(2S)-2-cyclohexyl-2-[(2S)-2-(methylamino)propanamido]acetyl]pyrrolidine-2-amido]-5,6,7,8-tetrahydronaphthalen-1-yl]oxy]ethoxy)ethoxy]-1,2,3,4-tetrahydmnaphthalen-1-yl]pyrrolidine-2-carboxamide] |
| 7.00 to 8.00 | 8.00 to 9.00 | 7.00 to 8.00 | CN[C@@H](C)C(=O)N[C@H](C(=O)N1CCC[C@H]1C(=O)N[C@@H]1CCCc2c(-c3ccc4cc(-c5cccc6c5CCC[C@H]6NC(=O)[C@@H]5CCCN5C(=O)[C@@H](NC(=O)[C@H](C)NC)C5CCCCC5)ccc4c3)cccc21)C1CCCCC1 [Compound III-B, (2S)-1-[(2S)-2-Cyclohexyl-2-[(2S)-2-(methylamino)propanamido]acetyl]-N-[(1R)-5-{6-[(5R)-5-[(2S)-1-[(2S)-2-cyclohexyl-2-[(2S)-2-(methylamino)propanamido]acetyl]pyrrolidine-2-amido]-5,6,7,8-tetrahydronaphthalen-1-yl]naphthalen-2-yl}-1,2,3,4-tetrahydmnaphthalen-1-yl]pyrrolidine-2-carboxamide] |
| 7.00 to 8.00 | 8.00 to 9.00 | 7.00 to 8.00 | CN[C@@H](C)C(=O)N[C@H](C(=O)N1CCC[C@H]1C(=O)N[C@@H]1CCOc2c(-c3cccc4c3OCC[C@H]4NC(=O)[C@@H]3CCCN3C(=O)[C@@H](NC(=O)[C@H](C)NC)C(C)C)cccc21)C(C)C [Compound V-C, (2S)-1-[(2S)-3-methyl-2-[(2S)-2-(methylamino)propanamido]butanoyl]-N-[(4R)-8-[(4R)-4-[(2S)-1-[(2S)-3-methyl-2-[(2S)-2-(methylamino)propanamido]butanoyl]pyrrolidine-2-amido]-3,4-dihydro-2H-1-benzopyran-8-yl]-3,4-dihydro-2H-1-benzopyran-4-yl]pyrrolidine-2-carboxamide] |
| 7.00 to 8.00 | 8.00 to 9.00 | 6.00 to 7.00 | CN[C@@H](C)C(=O)N[C@@H](C)C(=O)N1CCC[C@H]1C(=O)N[C@@H]1CCCc2c(-c3ccc(-c4cccc5c4CCC[C@H]5NC(=O)[C@@H]4CCCN4C(=O)[C@H](C)NC(=O)[C@H](C)NC)cc3)cccc21 [Compound III-H, (2S)-1-[(2S)-2-[(2S)-2-(methylamino)propanamido]propanoyl]-N-[(1R)-5-[4-[(5R)-5-[(2S)-1-[(2S)-2-[(2S)-2-(methylamino)propanamido]propanoyl]pyrrolidine-2-amido]-5,6,7,8-tetrahydronaphthalen-1-yl]phenyl]-1,2,3,4-tetrahydronaphthalen-1-yl]pyrrolidine-2-carboxamide] |
